Reference: ChEMBL document CHEMBL4028852, “Design of a Chemical Probe for the Bromodomain and Plant Homeodomain Finger-Containing (BRPF) Family of Proteins” (J Med Chem, 2017)
pIC50: −log10 of the molar value.

How the values were obtained:
[1] = molecular target: T1, Bromodomain-containing protein 1 (Homo sapiens, UniProt O95696); test: Inhibition of His-tagged BRPF2 (unknown origin) after 30 mins by alphaScreen assay
T1 sequence (O95696 whole entry): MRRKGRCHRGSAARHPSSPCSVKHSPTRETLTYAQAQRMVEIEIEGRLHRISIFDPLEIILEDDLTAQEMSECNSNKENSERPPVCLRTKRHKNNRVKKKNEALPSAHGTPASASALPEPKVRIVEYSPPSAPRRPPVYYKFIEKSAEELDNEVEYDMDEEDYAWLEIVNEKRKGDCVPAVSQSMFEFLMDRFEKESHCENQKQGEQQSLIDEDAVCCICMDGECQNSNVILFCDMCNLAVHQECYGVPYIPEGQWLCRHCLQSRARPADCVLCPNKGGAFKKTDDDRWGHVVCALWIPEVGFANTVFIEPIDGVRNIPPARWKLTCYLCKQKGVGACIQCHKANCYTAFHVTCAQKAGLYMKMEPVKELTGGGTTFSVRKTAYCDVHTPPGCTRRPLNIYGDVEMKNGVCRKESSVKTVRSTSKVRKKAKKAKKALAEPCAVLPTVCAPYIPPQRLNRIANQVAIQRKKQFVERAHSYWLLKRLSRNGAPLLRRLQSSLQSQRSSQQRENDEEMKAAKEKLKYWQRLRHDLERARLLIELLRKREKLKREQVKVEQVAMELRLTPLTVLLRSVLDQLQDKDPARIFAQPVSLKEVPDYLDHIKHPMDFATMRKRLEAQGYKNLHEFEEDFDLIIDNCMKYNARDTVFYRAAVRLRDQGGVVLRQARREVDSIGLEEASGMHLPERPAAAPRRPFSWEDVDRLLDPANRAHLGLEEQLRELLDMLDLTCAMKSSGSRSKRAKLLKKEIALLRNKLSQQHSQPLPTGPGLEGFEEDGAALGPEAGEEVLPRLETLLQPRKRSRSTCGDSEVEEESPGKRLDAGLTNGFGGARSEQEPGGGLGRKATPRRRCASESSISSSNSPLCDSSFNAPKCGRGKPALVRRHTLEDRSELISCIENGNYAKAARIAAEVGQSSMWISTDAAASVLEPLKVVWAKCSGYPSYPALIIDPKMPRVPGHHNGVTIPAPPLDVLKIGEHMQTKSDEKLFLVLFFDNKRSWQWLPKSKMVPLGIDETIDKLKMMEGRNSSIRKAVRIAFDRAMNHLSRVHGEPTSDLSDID

[2] = Fraction of drug absorbed in CD1 mouse at 3 mg/kg, po by UPLC-MS/MS analysis; format: ADME, organism-based; details: in vivo, read-out: Fabs
[3] = Apparent permeability across basolateral to apical side in human Caco2 cells at 10 uM after 2 hrs by LC-MS/MS analysis; format: ADME, cell-based; details: Caco-2
[4] = Oral bioavailability in CD1 mouse at 3 mg/kg by UPLC-MS/MS analysis; format: ADME, organism-based; details: in vivo
[5] = molecular target: T2, Transcription intermediary factor 1-alpha (Homo sapiens, UniProt O15164); test: Inhibition of TRIM24 (unknown origin) using tetra-acetylated histone 4/ mono-acetylated K14 histone 3 as substrate after 30 mins by alphascreen assay
T2 sequence (O15164 whole entry): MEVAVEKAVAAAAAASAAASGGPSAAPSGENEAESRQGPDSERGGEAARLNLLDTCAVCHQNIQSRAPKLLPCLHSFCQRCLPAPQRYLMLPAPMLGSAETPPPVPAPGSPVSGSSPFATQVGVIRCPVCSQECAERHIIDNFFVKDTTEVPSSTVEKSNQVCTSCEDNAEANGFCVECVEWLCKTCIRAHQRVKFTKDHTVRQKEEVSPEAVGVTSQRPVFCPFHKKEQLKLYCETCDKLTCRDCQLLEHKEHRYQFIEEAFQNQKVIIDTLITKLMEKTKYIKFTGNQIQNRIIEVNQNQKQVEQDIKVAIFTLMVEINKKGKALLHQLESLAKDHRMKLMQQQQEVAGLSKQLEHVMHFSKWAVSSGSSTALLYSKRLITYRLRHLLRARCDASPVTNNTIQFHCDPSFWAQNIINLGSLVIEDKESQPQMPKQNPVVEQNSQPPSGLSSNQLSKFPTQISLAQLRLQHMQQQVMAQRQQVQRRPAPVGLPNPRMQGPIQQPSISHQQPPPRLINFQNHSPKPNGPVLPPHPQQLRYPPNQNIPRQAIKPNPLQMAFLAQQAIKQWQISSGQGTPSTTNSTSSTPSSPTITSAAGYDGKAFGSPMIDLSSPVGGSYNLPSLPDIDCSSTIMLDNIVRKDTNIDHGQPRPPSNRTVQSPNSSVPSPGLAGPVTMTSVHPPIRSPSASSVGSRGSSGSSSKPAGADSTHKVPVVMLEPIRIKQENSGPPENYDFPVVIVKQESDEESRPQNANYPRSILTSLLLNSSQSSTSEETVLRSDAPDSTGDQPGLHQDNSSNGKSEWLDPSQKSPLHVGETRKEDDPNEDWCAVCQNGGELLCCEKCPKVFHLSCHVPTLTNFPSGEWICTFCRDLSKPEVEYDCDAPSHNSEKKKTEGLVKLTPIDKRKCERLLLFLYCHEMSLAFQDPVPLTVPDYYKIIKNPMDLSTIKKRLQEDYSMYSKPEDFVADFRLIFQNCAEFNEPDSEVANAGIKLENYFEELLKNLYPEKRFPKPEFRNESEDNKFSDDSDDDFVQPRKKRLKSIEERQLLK

[6] = Elimination half life in CD1 mouse at 1 mg/kg, iv by UPLC-MS/MS analysis; format: ADME, organism-based; details: in vivo, read-out: beta t1/2 (converted)
[7] = tested on: DMS-114; test: Inhibition of cell proliferation of human DMS114 cells after 72 hrs by MTS assay; format: functional; details: DMS-114, 72 h
[8] = Inhibition of CYP450 (unknown origin); format: ADME; details: human
[9] = tested on: NCI-H1703; test: Inhibition of cell proliferation of human NCI-H1703 cells after 72 hrs by MTS assay; format: functional; details: NCI-H1703, 72 h
[10] = tested on: Liver; test: Metabolic stability in mouse liver microsomes by UPLC-MS/MS analysis; format: ADME, microsome
[11] = molecular target: hERG (Homo sapiens, UniProt Q12809); test: Inhibition of human ERG at 30 uM
Sequence of hERG (Q12809 whole entry): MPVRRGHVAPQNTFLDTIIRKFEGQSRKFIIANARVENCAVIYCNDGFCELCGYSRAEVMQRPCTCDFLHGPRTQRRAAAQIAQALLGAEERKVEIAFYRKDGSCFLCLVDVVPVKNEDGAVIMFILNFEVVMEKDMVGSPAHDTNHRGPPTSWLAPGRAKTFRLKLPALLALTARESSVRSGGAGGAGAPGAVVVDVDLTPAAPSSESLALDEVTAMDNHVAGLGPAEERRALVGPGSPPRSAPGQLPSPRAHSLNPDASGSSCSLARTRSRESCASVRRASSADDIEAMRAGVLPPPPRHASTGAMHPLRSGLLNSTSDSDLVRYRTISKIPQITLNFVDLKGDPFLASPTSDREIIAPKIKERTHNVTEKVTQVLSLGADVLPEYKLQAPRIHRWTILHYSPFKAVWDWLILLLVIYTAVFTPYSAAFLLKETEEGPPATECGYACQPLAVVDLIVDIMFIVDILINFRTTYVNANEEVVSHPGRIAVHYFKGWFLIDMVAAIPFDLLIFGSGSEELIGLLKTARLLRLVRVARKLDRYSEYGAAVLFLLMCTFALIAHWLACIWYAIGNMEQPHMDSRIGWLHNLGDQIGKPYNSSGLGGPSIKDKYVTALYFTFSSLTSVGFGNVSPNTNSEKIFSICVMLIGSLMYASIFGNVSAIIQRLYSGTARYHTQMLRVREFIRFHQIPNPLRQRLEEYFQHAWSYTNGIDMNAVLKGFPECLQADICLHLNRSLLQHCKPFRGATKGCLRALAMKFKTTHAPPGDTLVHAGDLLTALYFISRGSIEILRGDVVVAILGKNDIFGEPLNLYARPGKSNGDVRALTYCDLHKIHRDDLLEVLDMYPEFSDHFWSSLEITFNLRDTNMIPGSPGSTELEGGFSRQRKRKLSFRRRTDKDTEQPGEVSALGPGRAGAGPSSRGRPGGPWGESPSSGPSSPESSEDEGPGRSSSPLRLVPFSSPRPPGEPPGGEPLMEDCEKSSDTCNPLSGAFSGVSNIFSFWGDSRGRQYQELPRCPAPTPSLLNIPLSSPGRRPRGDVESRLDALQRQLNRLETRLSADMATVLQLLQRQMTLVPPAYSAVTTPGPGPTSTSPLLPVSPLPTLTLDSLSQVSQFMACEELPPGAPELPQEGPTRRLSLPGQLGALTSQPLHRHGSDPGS

[12] = molecular target: Bromodomain-containing protein 4 (Homo sapiens, UniProt O60885); test: Inhibition of human BRD4 bromodomain 1 (unknown origin) by Alexa Fluor 647-JQ1 probe-based fluoresence polarization competition assay

Which results are given for `COc1cc(C#N)ccc1S(=O)(=O)Nc1ccc2c(c1)cc(C)c(=O)n2C`?
pIC50 [1]: 6.21; Fa [2]: 35%; Papp B→A at 2 h, 10 µM [3]: 52 ×10⁻⁶ cm/s; bioavailability [4]: 29%; pIC50 [5]: < 5.00; half-life [6]: 1.2 h; GI50 [7]: 14.7 µM; inhibition (INH) [8]: Not Active; GI50 [9]: 10.4 µM; Stability [10]: Stable; inhibition at 30 µM [11]: < 40%; pIC50 [12]: < 4.48
